Publication PMC2735267 (Neuropharmacology, 2009)
Where two headings read alike, the source gives them in different places. Marks after values point to notes of the source that are not given here.

Tests used:
[1] = tested on: [3H]noradrenaline release; conditions: read-out: EC50 [3H]noradrenaline release; rat hippocampal slices; ref Abin-Carriquiry et al., 2006; cited from earlier work
DBA/2J mice = assay: 3-IC-induced hypothermia; type: in vivo, mouse
human α7 = conditions: read-out: Ki human α7; expressed in Xenopus oocytes; ref Slater et al., 2003; cited from earlier work
α7* nAChR binding sites = type: in vivo, DBA/2J mice; conditions: cerebral cortex membranes; 0.2 mg/kg/h iv 7 days
α4β2* receptors = conditions: read-out: Ki α4β2* receptors in rat brain; ref Abin-Carriquiry et al., 2006; cited from earlier work
[2] = tested on: cytisine-sensitive [125I]epibatidine binding sites; type: in vivo, DBA/2J mice; conditions: for Cytisine-sensitive [125I]epibatidine binding: 3-IC 0.2 mg/kg/h iv 7 days; for Cytisine-sensitive [125I]epibatidine binding % change: 3-IC 0.2 mg/kg/h iv 7 days vs saline
β4*-nAChR = β4*-nAChR (Mus musculus, UniProt Q8R493+Q8R4G9); assay: biochemical; type: binding, C57BL/6J mice; conditions: read-out: [125I]epibatidine (β2 -/-) Ki; inferior colliculi, β2-/- mice; 200 pM ligand
[3H]dopamine release = read-out: EC50 [3H]dopamine release; rat striatal synaptosomes; ref Abin-Carriquiry et al., 2006; cited from earlier work
[3] = tested on: [125I]epibatidine binding sites (β2*- and β4*-nAChR); design: species or system C57BL/6J mice; conditions: inferior colliculus, wild-type
[4] = dorsolateral geniculate nucleus
[5] = superior colliculus (optic nerve)
[6] = superior colliculus (sup. gray)

Sequence of β4*-nAChR (Q8R493 21-495): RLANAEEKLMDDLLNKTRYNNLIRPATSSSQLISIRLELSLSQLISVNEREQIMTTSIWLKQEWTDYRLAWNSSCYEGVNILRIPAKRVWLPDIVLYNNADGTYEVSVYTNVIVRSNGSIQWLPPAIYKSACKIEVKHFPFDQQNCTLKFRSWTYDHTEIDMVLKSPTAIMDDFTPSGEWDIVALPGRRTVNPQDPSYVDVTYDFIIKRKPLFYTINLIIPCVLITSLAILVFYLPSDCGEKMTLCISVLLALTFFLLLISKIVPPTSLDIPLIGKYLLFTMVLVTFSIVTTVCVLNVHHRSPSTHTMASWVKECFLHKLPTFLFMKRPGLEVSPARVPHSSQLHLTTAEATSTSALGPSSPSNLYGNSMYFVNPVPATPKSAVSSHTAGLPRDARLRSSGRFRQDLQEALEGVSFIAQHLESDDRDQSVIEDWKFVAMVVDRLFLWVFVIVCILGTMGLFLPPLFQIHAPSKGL
Sequence of β4*-nAChR (Q8R4G9 26-499): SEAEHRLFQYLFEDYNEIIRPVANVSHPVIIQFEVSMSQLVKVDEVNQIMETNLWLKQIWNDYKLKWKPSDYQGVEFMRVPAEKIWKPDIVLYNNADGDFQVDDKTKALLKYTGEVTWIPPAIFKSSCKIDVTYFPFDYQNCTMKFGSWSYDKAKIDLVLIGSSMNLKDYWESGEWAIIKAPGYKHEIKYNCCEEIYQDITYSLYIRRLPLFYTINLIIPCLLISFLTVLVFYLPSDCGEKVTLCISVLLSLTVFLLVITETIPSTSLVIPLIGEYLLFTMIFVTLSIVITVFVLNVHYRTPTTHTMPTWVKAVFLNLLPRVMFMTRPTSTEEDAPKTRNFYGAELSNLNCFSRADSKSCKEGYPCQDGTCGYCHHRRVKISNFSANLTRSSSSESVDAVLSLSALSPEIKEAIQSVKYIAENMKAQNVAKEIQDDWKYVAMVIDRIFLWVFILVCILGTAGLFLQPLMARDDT

## O=c1c(I)ccc2n1C[C@@H]1CNC[C@H]2C1 [3-IC, 3-iodocytisine]
[1]
  EC50: 220 nM
DBA/2J mice; 0.2 mg/kg ip acute, DBA/2J
  decrease of basal temperature: 7.7 ± 0.5 °C
DBA/2J mice; 0.2 mg/kg ip, DBA/2J and C57BL/6J
  tremors or diarrhea: without inducing tremors or diarrhea
DBA/2J mice; 1 mg/kg ip, DBA/2J
  maximal temperature decrease: 11.9 ± 0.4 °C
DBA/2J mice; 3-IC 0.2 mg/kg, DBA/2J
  time of maximal hypothermia after 3-IC injection, saline pretreated: 40 min
DBA/2J mice; any dose tested (0.05-1 mg/kg ip), DBA/2J and C57BL/6J
  seizures: no seizures were noted
DBA/2J mice; hexamethonium experiment, 3-IC 0.2 mg/kg, DBA/2J
  maximal 3-IC-induced hypothermia after saline pretreatment: 8.10 ± 0.63 °
DBA/2J mice; ip acute, DBA/2J and C57BL/6J
  doses at which tremors were seen: above 0.5 mg/kg
DBA/2J mice; ip, DBA/2J, maximal drop in temperature
  ED50 for hypothermia: 0.15 ± 0.04 mg/kg
DBA/2J mice; mecamylamine experiment, 3-IC 0.2 mg/kg ip, DBA/2J
  3-IC-induced hypothermia after saline pretreatment: 8.50 ± 0.42 °C
Human α7
  Ki: 7 nM
α7* nAChR binding sites
  increase in [125I]α-bungarotoxin binding sites compared to saline: 58%
α4β2* receptors
  Ki: 0.17 nM
[2]; anterior olfactory nucleus
  Cytisine-sensitive [125I]epibatidine binding: 16.1 ± 1.4 fmol/mg
  Cytisine-sensitive [125I]epibatidine binding % change: 53.5%
[2]; anteromedial thalamic nucleus
  Cytisine-sensitive [125I]epibatidine binding: 50.3 ± 4.0 fmol/mg
  Cytisine-sensitive [125I]epibatidine binding % change: -0.8%
[2]; caudate putamen
  Cytisine-sensitive [125I]epibatidine binding: 20.3 ± 1.9 fmol/mg
  Cytisine-sensitive [125I]epibatidine binding % change: 68.3 * %
[2]; cingulate cortex
  Cytisine-sensitive [125I]epibatidine binding: 23.6 ± 1.5 fmol/mg
  Cytisine-sensitive [125I]epibatidine binding % change: 42.0%
[2]; dentate gyrus (granular layer)
  Cytisine-sensitive [125I]epibatidine binding: 12.3 ± 0.6 fmol/mg
  Cytisine-sensitive [125I]epibatidine binding % change: 46.8 * %
[2]; [4]
  Cytisine-sensitive [125I]epibatidine binding: 70.7 ± 3.9 fmol/mg
  Cytisine-sensitive [125I]epibatidine binding % change: 9.7%
[2]; dorsomedial thalamic nucleus
  Cytisine-sensitive [125I]epibatidine binding: 52.9 ± 5.2 fmol/mg
  Cytisine-sensitive [125I]epibatidine binding % change: -4.5%
[2]; fasciculus retroflexus
  Cytisine-sensitive [125I]epibatidine binding: 40.2 ± 4.0 fmol/mg
  Cytisine-sensitive [125I]epibatidine binding % change: 1.0%
[2]; hippocampus (CA1-3)
  Cytisine-sensitive [125I]epibatidine binding: 9.0 ± 0.2 fmol/mg
  Cytisine-sensitive [125I]epibatidine binding % change: 56.3 *** %
[2]; inferior colliculus (central)
  Cytisine-sensitive [125I]epibatidine binding: 12.2 ± 2.5 fmol/mg
  Cytisine-sensitive [125I]epibatidine binding % change: 97.2 * %
[2]; inferior colliculus (dorsal)
  Cytisine-sensitive [125I]epibatidine binding: 22.8 ± 2.1 fmol/mg
  Cytisine-sensitive [125I]epibatidine binding % change: 68.7 * %
[2]; inferior colliculus (external)
  Cytisine-sensitive [125I]epibatidine binding: 16.8 ± 2.1 fmol/mg
  Cytisine-sensitive [125I]epibatidine binding % change: 88.9 * %
[2]; interpeduncular nucleus
  Cytisine-sensitive [125I]epibatidine binding: 194.7 ± 42.8 fmol/mg
  Cytisine-sensitive [125I]epibatidine binding % change: -0.6%
[2]; medial geniculate nucleus
  Cytisine-sensitive [125I]epibatidine binding: 49.4 ± 8.2 fmol/mg
  Cytisine-sensitive [125I]epibatidine binding % change: 27.2%
[2]; medial habenula
  Cytisine-sensitive [125I]epibatidine binding: 171.3 ± 36.4 fmol/mg
  Cytisine-sensitive [125I]epibatidine binding % change: 52.6%
[2]; nucleus accumbens
  Cytisine-sensitive [125I]epibatidine binding: 15.9 ± 2.1 fmol/mg
  Cytisine-sensitive [125I]epibatidine binding % change: 91.8 * %
[2]; olfactory tubercle
  Cytisine-sensitive [125I]epibatidine binding: 14.5 ± 1.6 fmol/mg
  Cytisine-sensitive [125I]epibatidine binding % change: 83.5 * %
[2]; optic tract
  Cytisine-sensitive [125I]epibatidine binding: 15.1 ± 2.9 fmol/mg
  Cytisine-sensitive [125I]epibatidine binding % change: 126.2%
[2]; optic tract, listed as 3-iodocytisine
  Cytisine-sensitive [125I]epibatidine binding % change: 126.2 * %
[2]; parietal cortex (layers 1-3)
  Cytisine-sensitive [125I]epibatidine binding: 9.1 ± 1.0 fmol/mg
  Cytisine-sensitive [125I]epibatidine binding % change: 71.7 * %
[2]; parietal cortex (layers 4-6)
  Cytisine-sensitive [125I]epibatidine binding: 19.0 ± 1.6 fmol/mg
  Cytisine-sensitive [125I]epibatidine binding % change: 79.7 * %
[2]; retrosplenial Cortex
  Cytisine-sensitive [125I]epibatidine binding: 26.6 ± 2.7 fmol/mg
  Cytisine-sensitive [125I]epibatidine binding % change: 35.6%
[2]; subiculum
  Cytisine-sensitive [125I]epibatidine binding: 41.7 ± 3.8 fmol/mg
  Cytisine-sensitive [125I]epibatidine binding % change: 27.8%
[2]; substantia nigra
  Cytisine-sensitive [125I]epibatidine binding: 43.6 ± 7.3 fmol/mg
  Cytisine-sensitive [125I]epibatidine binding % change: 38.0%
[2]; [5]
  Cytisine-sensitive [125I]epibatidine binding: 47.3 ± 2.2 fmol/mg
  Cytisine-sensitive [125I]epibatidine binding % change: 60.6 *** %
[2]; [6]
  Cytisine-sensitive [125I]epibatidine binding: 51.2 ± 4.4 fmol/mg
  Cytisine-sensitive [125I]epibatidine binding % change: 50.2 ** %
[2]; ventral tegmental area
  Cytisine-sensitive [125I]epibatidine binding: 25.1 ± 1.5 fmol/mg
  Cytisine-sensitive [125I]epibatidine binding % change: 45.2%
[2]; ventral tegmental area, listed as 3-iodocytisine
  Cytisine-sensitive [125I]epibatidine binding % change: 45.2 * %
[2]; ventromedial thalamic nucleus
  Cytisine-sensitive [125I]epibatidine binding: 50.7 ± 1.5 fmol/mg
  Cytisine-sensitive [125I]epibatidine binding % change: -0.8%
[2]; zona incerta
  Cytisine-sensitive [125I]epibatidine binding: 13.7 ± 1.2 fmol/mg
  Cytisine-sensitive [125I]epibatidine binding % change: 55.3 * %
β4*-nAChR
  Ki: 0.25 ± 0.04 nM
[3H]dopamine release
  EC50: 11 nM
[3]
  difference in affinity for the two [125I]epibatidine binding sites: 1.6 fold
